Experimental data published in patent publication US20210236467A1, “DANTROLENE FORMULATIONS AND METHODS OF THEIR USE” (EAGLE PHARMACEUTICALS, INC., priority 2018, published 2021).
Converted amounts (≈) assume the structure as drawn.

Key:
[1] = Effective pH determination (10-fold dilution of non-aqueous sample in water); format: physicochemical; details: for effective pH of 10 mg/mL samples in PEG400: Example 3, target 10 mg/mL in PEG400, 10-fold dilution in water, ratios acid:sodium by volume; for pH of the supernatant (effective pH): 10-fold dilution in water
Experimental: The pH of the supernatant was measured by making a 10-fold dilution of the supernatant in water.
The effective pH of the supernatant was measured by making a 10-fold dilution of the supernatant in water.
The effective pH of the dantrolene acid supernatant and dantrolene sodium sample was measured by making 10-fold dilutions in water, per the methods described elsewhere herein.
The effective pH of each sample was measured by making 10F dilutions in water. The pH values were recorded as follows—
Effective pH measurements were conducted at ambient room temperature, using a Thermo Scientific Orion Star A111 pH benchtop meter. The instrument was calibrated within one day of the effective pH measurement using phosphate buffers at pH 4, 7, and 10 (Hydrion Tri-Chek Buffer Capsule set).
Samples were prepared by diluting the non-aqueous/anhydrous sample 10 fold with water. The diluted sample was vortexed for about 10 to 15 seconds. Effective pH was measured using the pre-calibrated pH benchtop meter, directly after vortexing.
After each effective pH measurement, the pH bulb was rinsed with an appropriate rinse solution to remove the entire test sample from the bulb.

[2] = Dissolution and solution stability by visual inspection; format: physicochemical; details: for dissolution on visual inspection: target 10 mg/mL in PEG400, after vortexing
Experimental: 13.0 mgs of dantrolene acid was dissolved in 1.3 mL of PEG400, targeting 10 mg/mL dantrolene acid. 12.7 mgs of dantrolene sodium was dissolved in 1.27 mL of PEG400, targeting 10 mg/mL of dantrolene sodium. […] Both tubes were centrifuged for 5 min at 3,900 rpm at room temperature to separate the sample into supernatant (dantrolene acid or dantrolene sodium in solution) and pellet (insoluble material). […] The supernatant of the dantrolene acid sample was transferred into a clean tube. The dantrolene acid supernatant and the dantrolene sodium solution were diluted 100- and 200-fold in 25% acetonitrile for analysis on the UPLC as described below.
(§1) Dantrolene sodium (6.4 mg) was weighed into a glass vial and propylene glycol (0.128 mL) was added, using a positive displacement pipette to achieve a target concentration of 50 mg/mL of dantrolene sodium. The contents of the vials were mixed with a positive displacement pipette. Visual inspection confirmed that the solutions were clear. The sample was a stable solution for at about 2 days at room temperature, after which time, precipitate formed. The precipitate was 99.9% dantrolene, as determined using HPLC.
as §1, with “(6.2” for “(6.4”, “PEG400 (0.124” for “propylene glycol (0.128”, “that” for “that the”

[3] = Precipitation on dilution/addition of water; format: physicochemical
[4] = pH of aqueous slurry of dantrolene sodium; format: physicochemical; details: 43.5 mg in 43.5 mL of water
Experimental: 43.5 mgs of dantrolene sodium was slurried in 43.5 mL of water in a conical tube. The pH of the initial of the slurry was 9.89.

[5] = Solubility / concentration determination by UPLC of supernatant; format: physicochemical; details: organic solvent or mixture, thermodynamic from solid; saturated supernatant, room temperature, propylene glycol
Experimental: (§2) 11.2 mgs of dantrolene acid was added to 224 uL of PEG400. […] The tube was centrifuged for 5 min at 15,000 rpm at room temperature to separate the sample into supernatant (dantrolene acid in solution) and pellet (insoluble material). The supernatant was transferred into a clean tube and diluted 100-, 200- and 400-fold in 25% acetonitrile for analysis by UPLC as described below.
as §2, with “16.3” for “11.2”, “326” for “224”, “propylene glycol.” for “PEG400.”, “50-, 100-” for “100-, 200-”, “200-fold” for “400-fold”, “below. The solubility of dantrolene acid in propylene glycol was calculated as ˜0.8 mg/mL.” for “below.”
13.0 mgs of dantrolene acid was dissolved in 1.3 mL of PEG400, targeting 10 mg/mL dantrolene acid. […]
Analysis was performed using an Agilent UPLC System equipped with a diode array detector and an Agilent C18 Zorbax column. Samples were analyzed using a gradient method with mobile phase A containing 0.1% trifluoroacetic acid in water and mobile phase B containing 0.1% trifluoroacetic acid in acetonitrile. […] A 10 uL sample was injected and the analytes were detected by UV at 385 nm. […] Peak areas were determined by manual integration. […]

[6] = cited from earlier work

| effective pH of 10 mg/mL samples in PEG400 [1] | time as stable solution before precipitate formed ([2]; 50 mg/mL in PEG400, room temperature) | time as stable solution before precipitate formed ([2]; 50 mg/mL in propylene glycol, room temperature) | dissolution on visual inspection [2] | visual inspection of solution ([2]; target 50 mg/mL in PEG400) | visual inspection of solution ([2]; target 50 mg/mL in propylene glycol) | effect of addition of 50 μL of water ([3]; 50 mg/mL in PEG400 (0.124 mL)) | effect of addition of 50 μL of water ([3]; 50 mg/mL in propylene glycol (0.128 mL)) | pH of the initial slurry [4] | solubility [5] | pH of the supernatant (effective pH) ([1]; PEG400 supernatant) | pH of the supernatant (effective pH) ([1]; propylene glycol supernatant) | behaviour of the 10-fold dilution in water ([3]; PEG400 supernatant) | behaviour of the 10-fold dilution in water ([3]; propylene glycol supernatant) | SMILES | solubility in water [6] |
| --- | --- | --- | --- | --- | --- | --- | --- | --- | --- | --- | --- | --- | --- | --- | --- |
| 9.67 | about 2 days | about 2 days | completely dissolved | clear | clear | precipitation | precipitation | 9.89 | – | – | – | – | – | O=C1CN(/N=C/c2ccc(-c3ccc([N+](=O)[O-])cc3)o2)C(O)=N1 [dantrolene sodium] | – |
| 4.95 | – | – | cloudy after vortexing | – | – | – | – | – | ~800 µg/mL (≈ 2550 µM) | 4.88 | 5.73 | precipitated out quickly | precipitated out slowly | O=C1CN(/N=C/c2ccc(-c3ccc([N+](=O)[O-])cc3)o2)C(O)=N1 [dantrolene acid, 1-{[5-(4-nitrophenyl)-2-furyl]methylideneamino}imidazolidine-2,4-dione] | very poorly soluble in water |
